Tests used:
Type in all cases: functional
[1] = system: Staphylococcus epidermidis; assay: Antimicrobial activity against methicillin-susceptible Staphylococcus epidermidis assessed as resistant isolates by broth microdilution method
[2] = system: Staphylococcus epidermidis; assay: Antimicrobial activity against methicillin-susceptible Staphylococcus epidermidis isolated from ICU patient blood assessed as resistant isolates by broth microdilution method
Enterococcus sp. [3] = assay: Antimicrobial activity against vancomycin-resistant Enterococcus sp. isolated from ICU patient urine assessed as resistant isolates by broth microdilution method
[4] = system: Staphylococcus epidermidis; assay: Antimicrobial activity against methicillin-resistant Staphylococcus epidermidis isolated from ICU patient wound assessed as resistant isolates by broth microdilution method
[5] = system: Staphylococcus epidermidis; assay: Antimicrobial activity against methicillin-resistant Staphylococcus epidermidis assessed as resistant isolates by broth microdilution method
Enterococcus sp. [6] = assay: Antimicrobial activity against vancomycin-resistant Enterococcus sp. assessed as resistant isolates by broth microdilution method
Staphylococcus aureus [7] = assay: Antimicrobial activity against methicillin-susceptible Staphylococcus aureus isolated from ICU patient wound assessed as resistant isolates by broth microdilution method
Staphylococcus aureus [8] = assay: Antimicrobial activity against methicillin-resistant Staphylococcus aureus isolated from ICU patient urine assessed as resistant isolates by broth microdilution method
Staphylococcus aureus [9] = assay: Antimicrobial activity against methicillin-susceptible Staphylococcus aureus isolated from ICU patient blood assessed as resistant isolates by broth microdilution method
Enterococcus sp. [10] = assay: Antimicrobial activity against vancomycin-resistant Enterococcus sp. isolated from ICU patient blood assessed as resistant isolates by broth microdilution method
[11] = system: Staphylococcus epidermidis; assay: Antimicrobial activity against methicillin-resistant Staphylococcus epidermidis isolated from ICU patient blood assessed as resistant isolates by broth microdilution method
Staphylococcus aureus [12] = assay: Antimicrobial activity against methicillin-resistant Staphylococcus aureus isolated from ICU patient wound assessed as resistant isolates by broth microdilution method
Enterococcus sp. [13] = assay: Antimicrobial activity against vancomycin-resistant Enterococcus sp. isolated from ICU patient wound assessed as resistant isolates by broth microdilution method
Staphylococcus aureus [14] = assay: Antimicrobial activity against methicillin-susceptible Staphylococcus aureus isolated from ICU patient urine assessed as resistant isolates by broth microdilution method
Staphylococcus aureus [15] = assay: Antimicrobial activity against methicillin-susceptible Staphylococcus aureus isolated from ICU patient respiratory tract assessed as resistant isolates by broth microdilution method
Enterococcus sp. [16] = assay: Antimicrobial activity against vancomycin-resistant Enterococcus sp. isolated from ICU patient respiratory tract assessed as resistant isolates by broth microdilution method
Staphylococcus aureus [17] = assay: Antimicrobial activity against methicillin-resistant Staphylococcus aureus isolated from ICU patient blood assessed as resistant isolates by broth microdilution method
[18] = system: Staphylococcus epidermidis; assay: Antimicrobial activity against methicillin-resistant Staphylococcus epidermidis isolated from ICU patient urine assessed as resistant isolates by broth microdilution method
[19] = system: Staphylococcus epidermidis; assay: Antimicrobial activity against methicillin-susceptible Staphylococcus epidermidis isolated from ICU patient urine assessed as resistant isolates by broth microdilution method
Staphylococcus aureus [20] = assay: Antimicrobial activity against methicillin-resistant Staphylococcus aureus assessed as resistant isolates by broth microdilution method
Staphylococcus aureus [21] = assay: Antimicrobial activity against methicillin-resistant Staphylococcus aureus isolated from ICU patient respiratory tract assessed as resistant isolates by broth microdilution method
[22] = system: Staphylococcus epidermidis; assay: Antimicrobial activity against methicillin-susceptible Staphylococcus epidermidis isolated from ICU patient wound assessed as resistant isolates by broth microdilution method
Staphylococcus aureus [23] = assay: Antimicrobial activity against methicillin-susceptible Staphylococcus aureus assessed as resistant isolates by broth microdilution method
Escherichia coli [24] = assay: Antimicrobial activity against CTX-M ESBL producing Escherichia coli isolated from ICU patient respiratory tract assessed as resistant isolates by broth microdilution method
Escherichia coli [25] = assay: Antimicrobial activity against CTX-M ESBL producing Escherichia coli assessed as resistant isolates by broth microdilution method
Pseudomonas aeruginosa [26] = assay: Antimicrobial activity against carbapenem-resistant Pseudomonas aeruginosa isolated from ICU patient urine assessed as resistant isolates by broth microdilution method
Escherichia coli [27] = assay: Antimicrobial activity against CTX-M ESBL producing Escherichia coli isolated from ICU patient blood assessed as resistant isolates by broth microdilution method
Escherichia coli [28] = assay: Antimicrobial activity against CTX-M ESBL producing Escherichia coli isolated from ICU patient wound assessed as resistant isolates by broth microdilution method
Escherichia coli [29] = assay: Antimicrobial activity against CTX-M ESBL producing Escherichia coli isolated from ICU patient urine assessed as resistant isolates by broth microdilution method
Pseudomonas aeruginosa [30] = assay: Antimicrobial activity against carbapenem-resistant Pseudomonas aeruginosa isolated from ICU patient blood assessed as resistant isolates by broth microdilution method
[31] = system: Staphylococcus epidermidis; assay: Antimicrobial activity against methicillin-susceptible Staphylococcus epidermidis isolated from ICU patient respiratory tract assessed as resistant isolates by broth microdilution method
Pseudomonas aeruginosa [32] = assay: Antimicrobial activity against carbapenem-resistant Pseudomonas aeruginosa isolated from ICU patient respiratory tract assessed as resistant isolates by broth microdilution method
Pseudomonas aeruginosa [33] = assay: Antimicrobial activity against carbapenem-resistant Pseudomonas aeruginosa isolated from ICU patient wound assessed as resistant isolates by broth microdilution method
Pseudomonas aeruginosa [34] = assay: Antimicrobial activity against carbapenem-resistant Pseudomonas aeruginosa assessed as resistant isolates by broth microdilution method
Streptococcus pneumoniae [35] = assay: Antimicrobial activity against penicillin-resistant Streptococcus pneumoniae isolated from ICU patient blood assessed as resistant isolates by broth microdilution method
Streptococcus pneumoniae [36] = assay: Antimicrobial activity against penicillin-resistant Streptococcus pneumoniae assessed as resistant isolates by broth microdilution method
Streptococcus pneumoniae [37] = assay: Antimicrobial activity against penicillin-resistant Streptococcus pneumoniae isolated from ICU patient wound assessed as resistant isolates by broth microdilution method
Streptococcus pneumoniae [38] = assay: Antimicrobial activity against penicillin-resistant Streptococcus pneumoniae isolated from ICU patient respiratory tract assessed as resistant isolates by broth microdilution method

| Structure (SMILES) | Activity [1] [%] | Activity [2] [%] | Activity [4] [%] | Activity [5] [%] | Activity (Staphylococcus aureus [7]) [%] | Activity (Staphylococcus aureus [8]) [%] | Activity (Staphylococcus aureus [9]) [%] | Activity [11] [%] | Activity (Staphylococcus aureus [12]) [%] | Activity (Staphylococcus aureus [14]) [%] | Activity (Staphylococcus aureus [15]) [%] | Activity (Staphylococcus aureus [17]) [%] | Activity [18] [%] | Activity [19] [%] | Activity (Staphylococcus aureus [20]) [%] | Activity (Staphylococcus aureus [21]) [%] | Activity [22] [%] | Activity (Staphylococcus aureus [23]) [%] | Activity (Streptococcus pneumoniae [35]) [%] | Activity (Streptococcus pneumoniae [36]) [%] | other results |
| --- | --- | --- | --- | --- | --- | --- | --- | --- | --- | --- | --- | --- | --- | --- | --- | --- | --- | --- | --- | --- | --- |
| CCCCCCCCCC(=O)N[C@@H](Cc1c[nH]c2ccccc12)C(=O)N[C@H](CC(N)=O)C(=O)N[C@@H](CC(=O)O)C(=O)N[C@@H]1C(=O)NCC(=O)N[C@@H](CCCN)C(=O)N[C@@H](CC(=O)O)C(=O)N[C@H](C)C(=O)N[C@@H](CC(=O)O)C(=O)NCC(=O)N[C@H](CO)C(=O)N[C@@H]([C@H](C)CC(=O)O)C(=O)N[C@@H](CC(=O)c2ccccc2N)C(=O)O[C@@H]1C | 0 | 0 | 0 | 0 | 0 | 0 | 0 | 0 | 0 | 0 | 0 | 0 | 0 | 0 | 0 | 0 | 0 | 0 |  |  | Activity (Enterococcus sp. [3]): 0%; Activity (Enterococcus sp. [6]): 0%; Activity (Enterococcus sp. [10]): 0%; Activity (Enterococcus sp. [13]): 0%; Activity (Enterococcus sp. [16]): 0% |
| Cc1nnc(SCC2=C(C(=O)O)N3C(=O)[C@@H](NC(=O)Cn4cnnn4)[C@H]3SC2)s1 [CEFAZOLIN] | 0 | 0 | 100 | 100 | 0 | 100 | 0 | 100 | 100 | 0 | 0 | 100 | 100 | 0 | 100 | 100 | 0 | 0 |  |  | Activity (Escherichia coli [24]): 11.5%; Activity (Escherichia coli [25]): 20.1%; Activity (Pseudomonas aeruginosa [26]): 7.8%; Activity (Escherichia coli [27]): 21.9%; Activity (Escherichia coli [28]): 8.6%; Activity (Escherichia coli [29]): 25.8%; Activity (Pseudomonas aeruginosa [30]): 7.7%; Activity [31]: 0%; Activity (Pseudomonas aeruginosa [32]): 4.9%; Activity (Pseudomonas aeruginosa [33]): 7.7%; Activity (Pseudomonas aeruginosa [34]): 6.2% |
| CC[C@H]1OC(=O)[C@H](C)[C@@H](O[C@H]2C[C@@](C)(OC)[C@@H](O)[C@H](C)O2)[C@H](C)[C@@H](O[C@@H]2O[C@H](C)C[C@H](N(C)C)[C@H]2O)[C@](C)(OC)C[C@@H](C)C(=O)[C@H](C)[C@@H](O)[C@]1(C)O [CLARITHROMYCIN] | 77.4 | 74.6 | 94.1 | 96 | 23.9 | 100 | 16.1 | 100 |  | 30 | 19.5 |  | 100 | 100 |  |  | 79.2 | 20.1 | 13.2 | 15.9 | Activity (Enterococcus sp. [3]): 70.1%; Activity (Enterococcus sp. [6]): 65.9%; Activity (Enterococcus sp. [10]): 68.6%; Activity (Enterococcus sp. [13]): 60.3%; Activity (Enterococcus sp. [16]): 61.5%; Activity (Streptococcus pneumoniae [37]): 16.7%; Activity (Streptococcus pneumoniae [38]): 16.4% |
| CCC[C@@H]1C[C@@H](C(=O)N[C@@H]([C@H]2O[C@H](SC)[C@H](O)[C@@H](O)[C@H]2O)[C@H](C)Cl)N(C)C1 [CLINDAMYCIN] | 54.8 | 43.6 | 88.2 | 92 | 3.5 | 100 | 4.6 | 100 | 81.5 | 10 | 4.3 | 79.6 | 100 | 100 | 76.1 | 72.9 | 70.8 | 4.4 | 2.6 | 5.6 | Activity (Streptococcus pneumoniae [37]): 0%; Activity (Streptococcus pneumoniae [38]): 6.4% |
| CC(=O)NC[C@H]1CN(c2ccc(N3CCOCC3)c(F)c2)C(=O)O1 [LINEZOLID] | 0 | 0 | 0 | 0 | 0 | 0 | 0 | 0 | 0 | 0 | 0 | 0 | 0 | 0 | 0 | 0 | 0 | 0 | 0 | 0 | Activity (Enterococcus sp. [3]): 1.5%; Activity (Enterococcus sp. [6]): 1.8%; Activity (Enterococcus sp. [10]): 2.9%; Activity (Enterococcus sp. [13]): 1.6%; Activity (Enterococcus sp. [16]): 0%; Activity (Streptococcus pneumoniae [37]): 0%; Activity (Streptococcus pneumoniae [38]): 0% |
| COc1c(N2C[C@@H]3CCCN[C@@H]3C2)c(F)cc2c(=O)c(C(=O)O)cn(C3CC3)c12 [MOXIFLOXACIN] | 41.7 | 34.6 | 100 | 96 | 7.1 | 100 | 6.9 | 83.3 | 88.9 | 15 | 5.8 | 89.8 | 100 | 80 | 90.1 | 91.5 | 50 | 6.4 | 0 | 1.3 | Activity (Streptococcus pneumoniae [37]): 0%; Activity (Streptococcus pneumoniae [38]): 1.6% |

Reference: ChEMBL document CHEMBL1275409, “Antimicrobial-resistant pathogens in intensive care units in Canada: results of the Canadian National Intensive Care Unit (CAN-ICU) study, 2005-2006” (2008)
